The results in this text go back to paper PMC10246279, “Parasite proteostasis and artemisinin resistance” (Research Square, 2023).

For experiment [1], the target named is T1, P. falciparum proteasome, β5 (chymotrypsin-like) activity (Plasmodium falciparum, UniProt Q8IJT1).
T1 construct: gene PF3D7_1011400; native proteasome in NP-40 lysate of 26-30 hpi trophozoites; not purified; 20S core of four heptameric rings; with Proteasome subunit beta type-7 (beta2 catalytic subunit); Proteasome subunit beta type-6 (beta1 catalytic subunit)
T1 sequence (Q8IJT1 entry or part of it): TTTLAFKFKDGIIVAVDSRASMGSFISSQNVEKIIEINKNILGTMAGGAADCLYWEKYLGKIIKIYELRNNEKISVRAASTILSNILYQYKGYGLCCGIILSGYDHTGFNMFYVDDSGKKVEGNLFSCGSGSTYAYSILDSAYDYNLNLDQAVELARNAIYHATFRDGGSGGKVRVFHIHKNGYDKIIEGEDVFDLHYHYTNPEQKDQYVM
Nature of the experiment: fluorogenic Suc-LLVY-AMC cleavage in lysate of drug-treated parasites. The format is cell-based. To be noted: read-out: % inhibition at 700 nM.

In experiment [2] the target is T2, P. falciparum proteasome, β2 (trypsin-like) activity (Plasmodium falciparum, UniProt Q8I6T3).
T2 construct: gene PF3D7_1328100; native proteasome in NP-40 lysate of 26-30 hpi trophozoites; not purified; 20S core of four heptameric rings; with Proteasome subunit beta type-5; Proteasome subunit beta type-6 (beta1 catalytic subunit)
T2 sequence (Q8I6T3 entry or part of it): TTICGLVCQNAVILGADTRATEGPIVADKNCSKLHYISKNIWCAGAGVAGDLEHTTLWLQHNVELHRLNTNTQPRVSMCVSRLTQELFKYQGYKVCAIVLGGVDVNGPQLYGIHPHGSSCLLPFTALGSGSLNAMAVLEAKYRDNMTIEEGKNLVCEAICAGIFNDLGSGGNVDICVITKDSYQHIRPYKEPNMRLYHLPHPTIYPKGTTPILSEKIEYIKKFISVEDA
Nature of the experiment: fluorogenic Ac-RLR-AMC cleavage in lysate of drug-treated parasites. The format is cell-based. To be noted: read-out: % inhibition at 700 nM.

Experiment [3] has as its target T3, P. falciparum proteasome, β1 (caspase-like) activity (Plasmodium falciparum, UniProt Q8I0U7).
T3 construct: gene PF3D7_0931800; native proteasome in NP-40 lysate of 26-30 hpi trophozoites; not purified; 20S core of four heptameric rings; with Proteasome subunit beta type-7 (beta2 catalytic subunit); Proteasome subunit beta type-5
Nature of the experiment: fluorogenic Ac-nLPnLD-AMC cleavage in lysate of drug-treated parasites. It counts as cell-based. To be noted: read-out: % inhibition at 700 nM.

The test system of experiment [4] is T4, P. falciparum proteasome, β1 (caspase-like) activity.
T4 construct: gene beta1
To be noted: live trophozoites treated 3 h, then lysed; K13 C580Y background; effect may be indirect.

The subject of experiment [5] is T5, P. falciparum proteasome, β5 (chymotrypsin-like) activity.
T5 construct: gene beta5
To be noted: live trophozoites treated 3 h, then lysed; K13 C580Y background; effect may be indirect.

T3 sequence (Q8I0U7 entry or part of it): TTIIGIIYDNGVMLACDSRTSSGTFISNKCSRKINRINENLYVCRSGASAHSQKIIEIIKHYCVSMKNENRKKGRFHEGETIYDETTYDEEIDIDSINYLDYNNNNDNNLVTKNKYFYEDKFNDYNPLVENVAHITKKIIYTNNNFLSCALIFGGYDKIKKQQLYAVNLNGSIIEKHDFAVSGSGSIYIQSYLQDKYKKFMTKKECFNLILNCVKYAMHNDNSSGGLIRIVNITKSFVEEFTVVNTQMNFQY

As usually defined, the inhibition is the share of the control response that was lost under treatment. As usually defined, the % inhibition is how much of the control response was suppressed. Higher therefore signals strong suppression. As to `C[C@@H]1CC[C@H]2[C@@H](C)C(O)O[C@@H]3O[C@@]4(C)CC[C@@H]1[C@]32OO4` (some centres unmarked) [DHA], the inhibition at 0.7 µM in experiment [1] is roughly 60%; in experiment [2], roughly 40%; in experiment [3], roughly 40%. The “% inhibition at 50 nM” value in experiment [4] is reported as 49%.

Turning to `c1cc(C2CCC3(CC2)OOC2(O3)C3CC4CC(C3)CC2C4)ccc1OCCN1CCOCC1` (centres unmarked) [OZ439], the “% inhibition at 3 μM” value in experiment [5] is 52%.
